Measured values from patent US5719291A, “Cyclohexane derivatives” (Hoffmann-La Roche Inc., priority 1991, dated 1998).
Converted amounts (≈) assume the structure as drawn. Counter-ions that a name gives are not always drawn.

Key:
Test in all cases: In vitro antifungal activity, MIC (Method A)
Format in all cases: cell-based
[1] = system: Cryptococcus neoformans; settings: 3 days, 27° C.; for MIC: Cryptococcus neoformans, 72 h; for Antifungal activity MIC: 1×10^5 cells/ml, pH 7.0
Description: (§1) The in vitro antifungal activities of representative compounds of the present invention were measured by determining the minimal inhibitory concentration (MIC), which is the concentration of an antifungal at which no fungal growth can be observed.
(§2) The MICs were determined by the microbroth dilution procedure according to NCCLS with the following minor modifications (Galgiani et al., Antimicrob. Agents Chemother., 33, 731 (1989). The medium was solidified with 0.2% low melting point agarose and buffered to pH 7.0 with 0.25%: K2 HPO4 in Yeast Nitrogen Base (Difco Lab.). Inoculum size was 1×10^5 cells/ml, and incubation was carried out for 3 days at 27° C. The MICs ([…]) are shown in Table 1. The reference compound is compound (IA) in U.S. Pat. No. 4,952,604. The compounds used are identified by reference to the Examples in which they were prepared.
(§3) The in vitro antifungal activities of the representative compounds of the present invention shown in Table 1 and Table 2 were measured by determining the minimal inhibitory concentrations (MIC: Method A) or 80% growth inhibition concentration (IC80 : Method B) respectively. MIC is defined as the concentration of an antifungal at which growth of fungi is not observed and IC80 is the concentration where cell turbidity measured at OD630 is reduced by 80%.
(§4) Antifungal activities were determined by either method A or B (see below) using microtest plates according NCCLS with minor modifications (Galgiani et at., Antimicrob. Agents Chemother. 33, 731 (1989)).
(§5) (Method A) The medium was solidified with 0.2% low melting point agarose and buffered to pH 7.0 with 0.25% K2 HPO4 in Yeast Nitrogen Base (Difco Lab.). Inoculum size was 1×10^5 cells/ml, and incubation was carried out for 3 days at 27° C. The reference compound is compound (IA) in U.S. Pat. No. 4,952,604.

[2] = system: Aspergillus fumigatus; settings: 3 days, 27° C.; for MIC: Aspergillus fumigatus, 72 h; for Antifungal activity MIC: 1×10^5 cells/ml, pH 7.0
Description: as §1, §2, §3, §4, §5

[3] = system: Candida albicans; settings: 3 days, 27° C.; for MIC: Candida albicans, 72 h; for Antifungal activity MIC: 1×10^5 cells/ml, pH 7.0
Description: as §1, §2, §3, §4, §5

[4] = pH 7, Cryptococcus neoformans CY1057, 1×10^5 cells/ml
[5] = pH 7, Cryptococcus neoformans CY1059, 1×10^5 cells/ml
[6] = pH 7, Cryptococcus neoformans CY1061, 1×10^5 cells/ml
[7] = pH 7, Aspergillus fumigatus CF1003, 1×10^5 cells/ml
[8] = pH 7, Aspergillus fumigatus CF1004, 1×10^5 cells/ml
[9] = pH 7, Aspergillus fumigatus CF1023, 1×10^5 cells/ml
[10] = pH 7, Candida albicans CY1002, 1×10^5 cells/ml
[11] = pH 7, Candida albicans CY1005, 1×10^5 cells/ml
[12] = pH 7, Candida albicans CY3003, 1×10^5 cells/ml

Compound	MIC [1, 4]	MIC [1, 5]	MIC [1, 6]	MIC [2, 7]	MIC [2, 8]	MIC [2, 9]	MIC [3, 10]	MIC [3, 11]	MIC [3, 12]	Antifungal activity MIC ([1]; Cryptococcus neoformans CY1057)	Antifungal activity MIC ([1]; Cryptococcus neoformans CY1059)	Antifungal activity MIC ([1]; Cryptococcus neoformans CY1061)	Antifungal activity MIC ([2]; Aspergillus fumigatus CF1003)	Antifungal activity MIC ([2]; Aspergillus fumigatus CF1004)	Antifungal activity MIC ([2]; Aspergillus fumigatus CF1023)	Antifungal activity MIC ([3]; Candida albicans CY1002)	Antifungal activity MIC ([3]; Candida albicans CY1005)	Antifungal activity MIC ([3]; Candida albicans CY3003)
CO[C@@H]1[C@H](OC(=O)CN)[C@H](CCCC(C)CCCC(C)C)OC[C@@H]1C.O=C(O)C(F)(F)F (stereo partly drawn) [Example 8, (2S,3R,4S,5S)-2-(4,8-dimethylnonyl)-4-methoxyl-5-methyltetrahydro-2H-pyran-3-yl glycinate trifluoroacetic acid salt]	12.5 µg/mL	12.5 µg/mL	12.5 µg/mL	50 µg/mL	100 µg/mL	50 µg/mL	50 µg/mL	50 µg/mL	50 µg/mL	–	–	–	–	–	–	–	–	–
CCCCCCCCO[C@@H]1CCC(C)(C)C[C@H]1CC(O)CN (relative stereo) [Example 84, 1-[(1S^*,2R^*)-5,5-dimethyl-2-octyloxycyclohexyl]-3-amino-2-propanol]	3.13 µg/mL (≈ 9.98 µM)	6.25 µg/mL (≈ 19.9 µM)	6.25 µg/mL (≈ 19.9 µM)	25 µg/mL (≈ 79.7 µM)	6.25 µg/mL (≈ 19.9 µM)	6.25 µg/mL (≈ 19.9 µM)	12.5 µg/mL (≈ 39.9 µM)	12.5 µg/mL (≈ 39.9 µM)	12.5 µg/mL (≈ 39.9 µM)	–	–	–	–	–	–	–	–	–
CCCCCCC/C=C/[C@@H]1OC[C@H](C)C2(OCCO2)[C@H]1OC(=O)CN.O=C(O)C(F)(F)F [Example 46, (6S,7S,10S)-10-methyl-7-[(E)-1-nonenyl]-1,4,8-trioxaspiro[4,5]decan-6-yl glycinate trifluoroacetic acid salt]	25 µg/mL	50 µg/mL	50 µg/mL	25 µg/mL	25 µg/mL	25 µg/mL	50 µg/mL	25 µg/mL	25 µg/mL	–	–	–	–	–	–	–	–	–
CCCCCCC/C=C/[C@@H]1OC[C@H](C)C[C@H]1OC(=O)CN.O=C(O)C(F)(F)F [Example 28, (2S,3R,5R)-5-methyl-2-[(E)-1-nonenyl]tetrahydro-2H-pyran-3-yl glycinate trifluoroacetic acid salt]	3.13 µg/mL	3.13 µg/mL	12.5 µg/mL	50 µg/mL	50 µg/mL	25 µg/mL	50 µg/mL	50 µg/mL	50 µg/mL	–	–	–	–	–	–	–	–	–
CCCCCCCCO[C@@H]1CCC(C)(C)[C@H](OC)[C@@H]1Cn1ccnc1 [Example 68, 1-[[(1R,2R,6R)-2-methoxy-3,3-dimethyl-6-octyloxy-cyclohexyl]methyl]-1H-imidazole]	0.39 µg/mL (≈ 1.11 µM)	0.78 µg/mL (≈ 2.23 µM)	3.13 µg/mL (≈ 8.93 µM)	6.25 µg/mL (≈ 17.8 µM)	12.2 µg/mL (≈ 34.9 µM)	6.25 µg/mL (≈ 17.8 µM)	25 µg/mL (≈ 71.3 µM)	12.5 µg/mL (≈ 35.7 µM)	12.5 µg/mL (≈ 35.7 µM)	–	–	–	–	–	–	–	–	–
CCCCCCCCC[C@@H]1OC[C@H](C)[C@H](OC)[C@@H]1OC(=O)CN.O=CO [Example 5, (2S,3R,4S,5S)-4-methoxy-5-methyl-2-nonyl-tetrahydro-2H-pyran-3-yl glycinate formic acid salt]	12.5 µg/mL	12.5 µg/mL	25 µg/mL	50 µg/mL	100 µg/mL	50 µg/mL	50 µg/mL	25 µg/mL	25 µg/mL	–	–	–	–	–	–	–	–	–
CCCCCCCCC[C@@H]1OC[C@H](C)C=C1Cn1ccnc1 [Example 59, 1-[[(2S,5R)-5,6-dihydro-5-methyl-2-nonyl-2H-pyran-3-yl]methyl]-1H-imidazole]	3.13 µg/mL (≈ 10.3 µM)	6.25 µg/mL (≈ 20.5 µM)	3.13 µg/mL (≈ 10.3 µM)	3.13 µg/mL (≈ 10.3 µM)	12.5 µg/mL (≈ 41.1 µM)	12.5 µg/mL (≈ 41.1 µM)	50 µg/mL (≈ 164 µM)	25 µg/mL (≈ 82.1 µM)	25 µg/mL (≈ 82.1 µM)	–	–	–	–	–	–	–	–	–
(2S,3R,4S,5R)-5-butoxy-4-methoxy-2-[(E)-1-nonenyl]tetra-hydro-2H-pyran-3-ylglycinate trifluoroacetic acid salt [Example 35]	–	–	–	–	–	–	–	–	–	3.13 µg/mL	6.25 µg/mL	12.5 µg/mL	25 µg/mL	25 µg/mL	25 µg/mL	25 µg/mL	25 µg/mL	50 µg/mL
CCCCCCCCC[C@@H]1OC[C@@H](C)[C@H](OC)[C@@H]1OC(=O)CN.O=C(O)C(F)(F)F [Example 43, (2S,3R,4S,5R)-4-methoxy-5-methyl-2-nonyltetrahydro-2H-pyran-3-yl glycinate trifluoroacetic acid salt]	6.25 µg/mL	6.25 µg/mL	12.5 µg/mL	50 µg/mL	50 µg/mL	25 µg/mL	50 µg/mL	25 µg/mL	25 µg/mL	–	–	–	–	–	–	–	–	–
CCCCC/C=C/C=C/[C@@H]1OC[C@H](C)[C@H](OC)[C@H]1OC(=O)CN.O=CO [Example 47, (2S,3R,4S,5S)-4-methoxy-5-methyl-2-[(1E,3E)-1,3-nonadienyl]tetrahydro-2H-pyran-3-yl glycinate formic acid salt]	12.5 µg/mL	12.5 µg/mL	25 µg/mL	25 µg/mL	25 µg/mL	25 µg/mL	100 µg/mL	100 µg/mL	100 µg/mL	–	–	–	–	–	–	–	–	–
CCC/C=C/C=C/C=C\[C@@H]1OC[C@H](C)[C@H](OC)[C@H]1OC(=O)CN.O=CO [Example 12, (2S,3R,4S,5S)-4-methoxy-5-methyl-2-[(1Z,3E,5E)-1,3,5-nonatrienyl]tetrahydro-2H-pyran-3-yl glycinate formic acid salt]	1.56 µg/mL	3.13 µg/mL	6.25 µg/mL	25 µg/mL	12.5 µg/mL	25 µg/mL	200 µg/mL	> 200 µg/mL	> 200 µg/mL	–	–	–	–	–	–	–	–	–
CCCCCCC/C=C\[C@@H]1OC[C@@H](C)[C@H](OC)[C@H]1OC(=O)CN.O=C(O)C(F)(F)F [Example 42, (2S,3R,4S,5R)-4-methoxy-5-methyl-2-[(Z)-1-nonenyl]tetrahydro-2H-pyran-3-yl glycinate trifluoroacetic acid salt]	3.13 µg/mL	3.13 µg/mL	12.5 µg/mL	100 µg/mL	100 µg/mL	50 µg/mL	100 µg/mL	50 µg/mL	50 µg/mL	–	–	–	–	–	–	–	–	–
CCCCCCC/C=C\[C@@H]1OC[C@H](C)[C@H](OCCC)[C@H]1OC(=O)CN [Example 22, (2S,3R,4S,5-S)-5-methyl-2-[(Z)-1-nonenyl]-4-prpoxy-tetrahydro-2H-pyran-3-ylglycinate trifluoroacetic acid salt]	6.25 µg/mL	12.5 µg/mL	12.5 µg/mL	50 µg/mL	50 µg/mL	50 µg/mL	50 µg/mL	50 µg/mL	50 µg/mL	–	–	–	–	–	–	–	–	–
CCCCCCC/C=C/[C@@H]1OC[C@@H](OCc2ccccc2)[C@H](OC)[C@@H]1OC(=O)CN.O=C(O)C(F)(F)F [Example 31, (2S,3R,4S,5R)-5-benzyloxy-4-methoxy-2-[(E)-1-nonenyl]tetra-hydro-2H-pyran-3-yl glycinate trifluoroacetic acid salt]	6.25 µg/mL	12.5 µg/mL	12.5 µg/mL	100 µg/mL	200 µg/mL	50 µg/mL	50 µg/mL	50 µg/mL	25 µg/mL	–	–	–	–	–	–	–	–	–
CCC/C=C/C=C/C=C/[C@@H]1OC[C@H](C)[C@H](OC)[C@H]1OC(=O)CN.O=CO [Example 11, (2S,3R,4S,5S)-4-methoxy-5-methyl-2-[(1E,3E,5E)-1,3,5-nonatrienyl]tetrahydro-2H-pyran-3-yl glycinate formic acid salt]	6.25 µg/mL	6.25 µg/mL	25 µg/mL	6.25 µg/mL	6.25 µg/mL	6.25 µg/mL	200 µg/mL	200 µg/mL	100 µg/mL	–	–	–	–	–	–	–	–	–
